Usually IC50 stands for the concentration at which inhibition is half-maximal.

The assay addresses T1, human NaV1.8 (Homo sapiens, UniProt Q9Y5Y9).
T1 construct: The following NaV1.8 recombinant cell line was used for recordings: HEK-NaV1.8 (NM 006514.1); expressed in transfected cells; host or cells: HEK (recombinant cell line HEK-NaV1.8)
As to the kind of experiment: Electrophysiology: automated whole-cell voltage-clamp (patch clamp, Qube384) recordings of sodium currents in HEK-NaV1.8 cells. The format is cell-based. The settings on record: potency data either taken from inactivated or resting state, read-out: Potency category (human NaV1.8 IC50). The protocol: Electrophysiology: Voltage-Clamp Recordings
The following NaV1.8 recombinant cell line was used for recordings: HEK-NaV1.8 (NM 006514.1) with in (NM 018400.3).
Sodium currents were measured using the patch clamp technique in the whole-cell configuration using the Qube384 (Sophion A/S, Copenhagen, Denmark) automated voltage clamp platform. “Multi hole” plates were used for the cell line expressing NaV1.8 while “single hole” plates were used for the recombinant cell lines expressing the other subtypes. Appropriate filters (for minimum seal resistance and minimum current size) and series resistance compensation (for high quality sodium channel recordings) were applied. Data was collected at ambient room temperature.
The recording extracellular solution contained (in mM): NaCl 145 mM, KCl 4 mM, CaCl2 2 mM, MgCl2 1 mM, HEPES 10 mM, Glucose 10 mM, pH 7.4 (NaOH). The intracellular recording solution contained (in mM): CsF 120 mM, CsCl 20 mM, NaCl 10 mM, EGTA 10 mM, HEPES 10 mM, pH 7.2 (CsOH). Currents were recorded at 25 kHz sampling frequency and filtered at 5 kHz. Series resistance compensation was applied at 65%.
Vehicle (VEH) is the control condition where cells are exposed to 0.3% DMSO without compound. All runs include VEH controls being exposed to the same voltage protocols to assess non-compound related phenomena such as run down and then used to isolate compound dependent effects on currents.
To check for state-dependence inhibition, the following voltage-sequence was applied every 20 seconds:
From a resting membrane potential of −120 mV, the first test pulse (P1; 20 ms to −10 mV) was applied to check for channels in the Resting State followed by a brief recovery (20 ms to −120 mV), then holding the membrane voltage to V112 (4 seconds at voltage to obtain half the channel at Rest and half Inactivated) with a subsequent second test pulse (P2; 20 ms to −10 mV) to check for channels in the Inactivated State, followed by another brief recovery (20 ms to −120 mV) and a final third test pulse (P3; 20 ms to −10 mV) to check for recovered channels.
To check for frequency-dependent inhibition, a 10 Hz protocol and a 20 Hz protocol were applied; namely,
From a resting membrane potential of −120 mV, 40-pulses (10 ms to −10 mV) was applied at 10 Hz (at 100 ms between pulses) and then at 20 Hz (at 50 ms between pulses).
Each parameter was recorded (P1, P2, P3, P40 from 10 Hz and P40 from 20 Hz) during a control period (lasting 5 minutes) when establishing the baseline and during compound period (lasting ˜12 minutes) when test compound (or vehicle) was applied. For each parameter, the value at the end of the compound period was normalized to the vehicle baseline; as follows
To adjust for any variance in the Na^+ current signal during the compound period (owing to cumulative inactivation independent of compound or shifts in biophysics over time), a dedicated segment of the recording wells in each 384 plate were dedicated to having only vehicle exposure. These vehicle-only recordings were used to correct for any apparent “run-up” or “run-down” in the experiment.
The adjusted inhibition was calculated as follows: […]
Percent inhibition was determined and IC50 values were calculated using a 4 parameter logistic model within XLFit Software (IDBS, Boston MA):
[formula] where A and B are the maximal and minimum inhibition respectively, C is the IC50 concentration and D is the (Hill) slope.
The potency data was either taken from inactivated or resting state.

T1 sequence (Q9Y5Y9 whole entry): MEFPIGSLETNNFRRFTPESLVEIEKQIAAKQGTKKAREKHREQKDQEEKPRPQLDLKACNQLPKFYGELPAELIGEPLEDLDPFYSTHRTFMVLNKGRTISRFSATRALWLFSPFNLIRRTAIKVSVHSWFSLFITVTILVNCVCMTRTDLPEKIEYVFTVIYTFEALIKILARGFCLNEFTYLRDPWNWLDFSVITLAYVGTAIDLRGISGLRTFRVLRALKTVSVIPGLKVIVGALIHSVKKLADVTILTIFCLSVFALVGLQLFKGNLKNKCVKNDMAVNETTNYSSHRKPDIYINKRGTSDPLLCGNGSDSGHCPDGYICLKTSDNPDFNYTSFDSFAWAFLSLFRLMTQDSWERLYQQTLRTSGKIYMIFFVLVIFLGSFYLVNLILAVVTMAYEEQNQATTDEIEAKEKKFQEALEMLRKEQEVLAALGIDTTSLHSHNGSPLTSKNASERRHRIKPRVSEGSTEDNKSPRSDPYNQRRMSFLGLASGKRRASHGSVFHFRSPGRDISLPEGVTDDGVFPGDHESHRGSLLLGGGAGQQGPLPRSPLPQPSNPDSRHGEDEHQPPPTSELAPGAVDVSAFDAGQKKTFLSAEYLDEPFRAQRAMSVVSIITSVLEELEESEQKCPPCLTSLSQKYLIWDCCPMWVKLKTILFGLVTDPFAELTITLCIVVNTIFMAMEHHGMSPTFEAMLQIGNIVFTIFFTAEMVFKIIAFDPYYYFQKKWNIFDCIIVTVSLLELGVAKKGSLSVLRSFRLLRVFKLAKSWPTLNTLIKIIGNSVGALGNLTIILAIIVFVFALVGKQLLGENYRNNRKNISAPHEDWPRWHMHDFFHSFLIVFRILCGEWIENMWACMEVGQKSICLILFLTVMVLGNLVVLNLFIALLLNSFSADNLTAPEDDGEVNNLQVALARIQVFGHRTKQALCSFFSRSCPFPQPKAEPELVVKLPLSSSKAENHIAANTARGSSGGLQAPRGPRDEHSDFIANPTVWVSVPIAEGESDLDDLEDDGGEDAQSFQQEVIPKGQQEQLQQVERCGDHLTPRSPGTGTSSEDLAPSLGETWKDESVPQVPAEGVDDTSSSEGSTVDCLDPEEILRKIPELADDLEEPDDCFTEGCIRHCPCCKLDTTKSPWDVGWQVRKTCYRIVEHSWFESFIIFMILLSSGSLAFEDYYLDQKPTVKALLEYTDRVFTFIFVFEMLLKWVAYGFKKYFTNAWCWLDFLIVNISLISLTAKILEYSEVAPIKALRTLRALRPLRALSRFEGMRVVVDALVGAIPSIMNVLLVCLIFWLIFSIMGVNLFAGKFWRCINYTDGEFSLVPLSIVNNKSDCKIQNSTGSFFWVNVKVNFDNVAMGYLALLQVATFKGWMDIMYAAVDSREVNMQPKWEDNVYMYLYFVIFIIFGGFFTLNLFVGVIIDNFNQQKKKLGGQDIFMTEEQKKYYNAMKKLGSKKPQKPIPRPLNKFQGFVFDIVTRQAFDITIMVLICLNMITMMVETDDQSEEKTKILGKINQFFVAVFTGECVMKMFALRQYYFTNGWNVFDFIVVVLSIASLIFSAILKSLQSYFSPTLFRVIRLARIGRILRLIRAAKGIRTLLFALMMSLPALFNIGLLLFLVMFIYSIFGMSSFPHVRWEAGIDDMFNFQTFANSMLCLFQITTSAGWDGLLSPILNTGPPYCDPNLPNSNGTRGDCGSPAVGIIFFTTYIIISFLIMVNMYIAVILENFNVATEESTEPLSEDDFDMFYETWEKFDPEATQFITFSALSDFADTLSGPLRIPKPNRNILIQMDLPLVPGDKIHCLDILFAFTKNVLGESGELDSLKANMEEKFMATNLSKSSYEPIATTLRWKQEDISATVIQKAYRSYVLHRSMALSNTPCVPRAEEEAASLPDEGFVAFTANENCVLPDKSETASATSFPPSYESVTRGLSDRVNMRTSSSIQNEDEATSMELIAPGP
T1 sequence (Q9NY72 23-215 partner): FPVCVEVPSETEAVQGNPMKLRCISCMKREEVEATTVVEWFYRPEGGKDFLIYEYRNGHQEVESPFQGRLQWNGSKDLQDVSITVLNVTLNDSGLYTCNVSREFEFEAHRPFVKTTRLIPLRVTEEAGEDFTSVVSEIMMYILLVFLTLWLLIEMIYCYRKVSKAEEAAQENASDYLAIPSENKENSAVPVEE

`CS(=O)(=O)c1cccc(NC(=O)c2c(C(F)(F)F)cnn2CC2CCC(F)(F)CC2)c1` [SC-05, 2-[(4,4-difluorocyclohexyl)methyl]-N-(3-methylsulfonylphenyl)-4-(trifluoromethyl)pyrazole-3-carboxamide]: the IC50 lay within 100 to 1000 nM. The figure for `Cc1nn(CC2CCCCC2)c(C(=O)Nc2cccc(S(C)(=O)=O)c2)c1C` [SC-06, 2-(cyclohexylmethyl)-4,5-dimethyl-N-(3-methylsulfonylphenyl)pyrazole-3-carboxamide] is 100 to 1000 nM; for `Cc1nn(CC2CCCCC2)c(C(=O)Nc2cc[nH]c(=O)c2)c1C` [SC-07, 1-(cyclohexylmethyl)-3,4-dimethyl-N-(2-oxo-1,2-dihydropyridin-4-yl)-1H-pyrazole-5-carboxamide] it is 1000 to 10000 nM; for `CS(=O)(=O)c1cccc(NC(=O)c2c(F)cnn2CC2CCCCC2)c1` [SC-08, 2-(cyclohexylmethyl)-4-fluoro-N-(3-methylsulfonylphenyl)pyrazole-3-carboxamide] it is 1000 to 10000 nM.

As to `CS(=O)(=O)c1cccc(NC(=O)c2cc(C(F)F)nn2CC2CCCCC2)c1` [SC-09, 1-(cyclohexylmethyl)-3-(difluoromethyl)-N-(3-(methylsulfonyl)phenyl)-1H-pyrazole-5-carboxamide], the IC50 was 100 to 1000 nM. The figure for `CS(=O)(=O)c1cccc(NC(=O)c2c(C#N)cnn2CC2CCCCC2)c1` [SC-10, 4-cyano-1-(cyclohexylmethyl)-N-(3-(methylsulfonyl)phenyl)-1H-pyrazole-5-carboxamide] is 100 to 1000 nM.

Take `Cc1cc(C(=O)Nc2cccc(S(C)(=O)=O)c2)n(CC2CCCCC2)n1` [SC-11, 2-(cyclohexylmethyl)-5-methyl-N-(3-methylsulfonylphenyl)pyrazole-3-carboxamide]: the IC50 was in the range of 1000 to 10000 nM. The figure for `CS(=O)(=O)c1cccc(NC(=O)c2cc(C3CC3)nn2CC2CCCCC2)c1` [SC-12, 2-(cyclohexylmethyl)-5-cyclopropyl-N-(3-methylsulfonylphenyl)pyrazole-3-carboxamide] is 100 to 1000 nM; for `CS(=O)(=O)c1cc(NC(=O)c2c(C(F)(F)F)cnn2CC2CCC(F)(F)CC2)ccc1F` [SC-13, 2-[(4,4-difluorocyclohexyl)methyl]-N-(4-fluoro-3-methylsulfonylphenyl)-4-(trifluoromethyl)pyrazole-3-carboxamide] it is 100 to 1000 nM; for `CS(=O)(=O)c1cc(NC(=O)c2c(C(F)(F)F)cnn2CC2CCC(F)(F)CC2)ccn1` [SC-14, 2-[(4,4-difluorocyclohexyl)methyl]-N-(2-methylsulfonylpyridin-4-yl)-4-(trifluoromethyl)pyrazole-3-carboxamide] it is 1000 to 10000 nM. Turning to `CS(=O)(=O)c1cncc(NC(=O)c2c(C(F)(F)F)cnn2CC2CCC(F)(F)CC2)c1` [SC-15, 2-[(4,4-difluorocyclohexyl)methyl]-N-(5-methylsulfonylpyridin-3-yl)-4-(trifluoromethyl)pyrazole-3-carboxamide], the concentration for half-maximal inhibition (IC50) was 1000 to 10000 nM. For the compound `CS(=O)(=O)c1cccc(NC(=O)c2c(C(F)(F)F)cnn2CC2CCC(F)(F)CC2)c1F` [SC-16, 2-[(4,4-difluorocyclohexyl)methyl]-N-(2-fluoro-3-methylsulfonylphenyl)-4-(trifluoromethyl)pyrazole-3-carboxamide], the concentration for half-maximal inhibition (IC50) was 1000 to 10000 nM. Regarding `COc1cc(C(=O)Nc2cccc(S(C)(=O)=O)c2)n(CC2CCCCC2)n1` [SC-17, 2-(cyclohexylmethyl)-5-methoxy-N-(3-methylsulfonylphenyl)pyrazole-3-carboxamide], the half-maximal inhibitory concentration (IC50) lay within 100 to 1000 nM. Regarding `CC(C)c1cnn(CC2CCCCC2)c1C(=O)Nc1cccc(S(C)(=O)=O)c1` [SC-18, 2-(cyclohexylmethyl)-N-(3-methylsulfonylphenyl)-4-propan-2-ylpyrazole-3-carboxamide], the IC50 was in the range of 1000 to 10000 nM. In the case of `CS(=O)(=O)c1cccc(NC(=O)c2c(C3CC3)cnn2CC2CCCCC2)c1` [SC-19, 2-(cyclohexylmethyl)-4-cyclopropyl-N-(3-methylsulfonylphenyl)pyrazole-3-carboxamide], the IC50 lay within 100 to 1000 nM. Next, `NC(=O)c1ccc(NC(=O)c2c(C(F)(F)F)cnn2CC2CCC(F)(F)CC2)cc1F` [SC-21, N-(4-carbamoyl-3-fluorophenyl)-1-[(4,4-difluorocyclohexyl)methyl]-4-(trifluoromethyl)-1H-pyrazole-5-carboxamide]: 1000 to 10000 nM; `CS(=O)(=O)c1ccc(F)c(NC(=O)c2c(C(F)(F)F)cnn2CC2CCC(F)(F)CC2)c1` [SC-22, 1-[(4,4-difluorocyclohexyl)methyl]-N-(2-fluoro-5-methanesulfonylphenyl)-4-(trifluoromethyl)-1H-pyrazole-5-carboxamide]: 1000 to 10000 nM.

In the case of `CS(=O)(=O)c1cccc(NC(=O)c2c(C(F)(F)F)cnn2CC2CCCC(F)(F)C2)c1` (stereo not shown) [SC-23, 2-[(3,3-difluorocyclohexyl)methyl]-N-(3-methylsulfonylphenyl)-4-(trifluoromethyl)pyrazole-3-carboxamide], the IC50 was 100 to 1000 nM.

With `CS(=O)(=O)c1cccc(NC(=O)c2c(C(F)(F)F)cnn2CC2CCC2)c1` [SC-24, 2-(cyclobutylmethyl)-N-(3-methylsulfonylphenyl)-4-(trifluoromethyl)pyrazole-3-carboxamide], the half-inhibitory concentration (IC50) fell in the range of 100 to 1000 nM. The figure for `CS(=O)(=O)c1cccc(NC(=O)c2c(C(F)(F)F)cnn2CC2CCCC2)c1` [SC-25, 2-(cyclopentylmethyl)-N-(3-methylsulfonylphenyl)-4-(trifluoromethyl)pyrazole-3-carboxamide] is 100 to 1000 nM; for `CS(=O)(=O)c1cccc(NC(=O)c2c(C(F)(F)F)cnn2CC2CCCCC2)c1` [SC-26, 2-(cyclohexylmethyl)-N-(3-methylsulfonylphenyl)-4-(trifluoromethyl)pyrazole-3-carboxamide] it is no more than 100 nM. Regarding `CS(=O)(=O)c1cccc(NC(=O)c2c(C(F)(F)F)cnn2CC2CCCCCC2)c1` [SC-27, 2-(cycloheptylmethyl)-N-(3-methylsulfonylphenyl)-4-(trifluoromethyl)pyrazole-3-carboxamide], the IC50 is no more than 100 nM. Next, `CS(=O)(=O)c1cccc(NC(=O)c2c(C(F)(F)F)cnn2CC2CCOCC2)c1` [SC-28, N-(3-methylsulfonylphenyl)-2-(oxan-4-ylmethyl)-4-(trifluoromethyl)pyrazole-3-carboxamide]: 1000 to 10000 nM; `CC(C1CCCCC1)n1ncc(C(F)(F)F)c1C(=O)Nc1cccc(S(C)(=O)=O)c1` (stereo not shown) [SC-29, 2-(1-cyclohexylethyl)-N-(3-methylsulfonylphenyl)-4-(trifluoromethyl)pyrazole-3-carboxamide]: 100 to 1000 nM; `O=C(Nc1cc[nH]c(=O)c1)c1c(C(F)(F)F)cnn1CC1CCCCC1` [SC-30, 1-(cyclohexylmethyl)-N-(2-oxo-1,2-dihydropyridin-4-yl)-4-(trifluoromethyl)-1H-pyrazole-5-carboxamide]: 100 to 1000 nM. The figure for `O=C(Nc1ccnc(O)c1)c1c(C(F)(F)F)cnn1CC1CCCCCC1` [SC-31, 2-(cycloheptylmethyl)-N-(2-hydroxypyridin-4-yl)-4-(trifluoromethyl)pyrazole-3-carboxamide] is 100 to 1000 nM.

Take `CC(C1CCCCC1)n1ncc(C(F)(F)F)c1C(=O)Nc1ccnc(O)c1` (stereo not shown) [SC-32, 2-(1-cyclohexylethyl)-N-(2-hydroxypyridin-4-yl)-4-(trifluoromethyl)pyrazole-3-carboxamide]: the IC50 was in the range of 1000 to 10000 nM. For the compound `NS(=O)(=O)c1cccc(NC(=O)c2c(C(F)(F)F)cnn2CC2CCCCC2)c1` [SC-33, 2-(cyclohexylmethyl)-N-(3-sulfamoylphenyl)-4-(trifluoromethyl)pyrazole-3-carboxamide], the half-maximal inhibitory concentration (IC50) was no more than 100 nM.

The values are drawn from patent publication US11999699B2, “Substituted pyrazole amides” (GRUENENTHAL GMBH, priority 2021, dated 2024).
